Reference: patent US10149879B2 (priority 2014, dated 2018)

Experiments:
[1] = test system: βTC6 insulinoma cell; assay: Cell viability assay in βTC6 insulinoma cell line; format: cell-based; conditions: for Cell viability: βTC6, control 100.00
From the text: Cell Viability Assay in βTC6 Insulinoma Cell Lime Following—

[2] = test system: nor-epinephrine, serotonin and dopamine in whole brain; conditions: mice; acute administration 5 mg/kg ip; cited from earlier work
[3] = test system: 3T3-L1 cells; assay: Cell viability assay in 3T3-L1 cells; conditions: for Cell viability: 3T3-L1, control 100.00
[4] = test system: Triglycerides; assay: Anti-hyperlipidemic activity on triglycerides; format: in vivo, rats; conditions: H.G. animals, standard drug
Method: (§1) Before utilizing the test drug for human consumption the pre-clinical safety and efficacy profile of single plant candidate extract as well as in combined form was conducted following standard norms. The biological property of test formulation was validated in streptozotocin (STZ) induced diabetes animal model which also helped in evaluation of vascular complications caused due to diabetes. The effect of test drug was assessed on glucose levels, insulin level, glycosylated hemoglobin, and pro-inflammatory cytokines, and the most important bio-marker neopterin including various neuro-psychological assessments. The mechanism based study clearly indicated the neopterin decreasing potential of test formulation which exerted neuro-protective activity, better glycemic control, anti-atherosclerotic, anti-inflammatory, anti-oxidant effects in STZ induced diabetes among the animals. Further, its therapeutic activity has also been validated in neurogenic dementia and other cognitive deficits associated with diabetes mellitus.

[5] = test system: Adiponectin; assay: Adiponectin enhancing property in experimental diabetes; format: in vivo, rats; conditions: H.G. animals, standard drug
Method: as §1, with “mellitus. Adiponectin Enhancing Property of Berberis aristata in Experimental Diabetes” for “mellitus.”

[6] = test system: Adipocyte; assay: Reduction in hypertrophy of adipocyte; format: in vivo, rats; conditions: H.G. animals; standard drug
Method: as §1, with “mellitus. Reduction in hypertrophy of Adipocyte on Treated with Test Formulation” for “mellitus.”

[7] = test system: streptozotocin (STZ) induced diabetes animal model; assay: Urine volume and glyceuira (Benedict reagent); format: in vivo, rats; design: key to Glyceuria: (+++) abundant; (++) moderate; (+) mild; (−) complete absence; conditions: H.G. animals; standard drug
Method: as §1
Urine was collected from each group separately by using animal metabolic cage, volume of urine collected was measured and glucose executed in urine was detected by Benedict reagent. In which 1 ml of urine and 3 ml of B.R. are added and boiled for 5 minute. The change in color was observed as Red (+++), green coloration (++) yellow coloration (+) and unchanged (−).

[8] = Effect on body weight; format: in vivo, rats; conditions: H.G. animals, standard drug, in g (unit assumed)
Method: (§2) Before utilizing the test drug for human consumption the pre-clinical safety and efficacy profile of single plant candidate extract as well as in combined form was conducted following standard norms. […] The effect of test drug was assessed on glucose levels, insulin level, glycosylated hemoglobin, and pro-inflammatory cytokines, and the most important bio-marker neopterin including various neuro-psychological assessments.

[9] = test system: streptozotocin (STZ) induced diabetes animal model; assay: Anti-hyperglycemic activity, weekly assessment of plasma glucose; format: in vivo, rats; conditions: H.G. animals, standard drug
Method: as §1
Low dose=100 mg/kg; High dose=200 mg/kg

[10] = test system: Free Fatty Acid (FFA); assay: Reduction in free fatty acids; format: in vivo, rats; conditions: H.G. animals; standard drug
Method: as §1, with “mellitus. Reduction in Free Fatty Acids Following Test Formulation Treatment Treated with test formulation reported FFA elevation in tissues and plasma of diabetic rats” for “mellitus.”

[11] = test system: HDL-c, VLDL-c, LDL-c; assay: Lipoprotein profile and assessment of atherosclerosis; format: in vivo, rats; design: HDL-c / VLDL-c / LDL-c: unit not given here; conditions: H.G. animals; standard drug
Method: as §2

Compound COc1ccc2cc3[n+](cc2c1OC)CCc1cc2c(cc1-3)OCO2 [Berberin] has a Cell viability ([1]; 1 pM) of 97.95 ± 1.12, a Cell viability ([1]; 10 pM) of 96.99 ± 2.20 and a Cell viability ([1]; 100 pM) of 94.60 ± 2.45. The Cell viability ([1]; 1 nM) was 90.89 ± 1.42, the Cell viability ([1]; 10 nM) was 88.65 ± 2.60 and the Cell viability ([1]; 100 nM) was 86.30 ± 1.67. For the same compound, the Cell viability ([1]; 1 μM) was 73.75 ± 2.90, the Cell viability ([1]; 10 μM) was 67.89 ± 1.65 and the “toxicity to the cells” value ([1]; βTC6 insulinoma cells, 10 ng/ml) was “non-toxic”. The “increased level of dopamine in whole brain” value [2] was 31%, the “increased level of nor-epinephrine in whole brain” value [2] was 31% and the “increased level of serotonin in whole brain” value [2] was 47%. It also gave a Cell viability ([3]; 10 pM) of 99.50 ± 1.50, a Cell viability ([3]; 100 pM) of 99.99 ± 2.80 and a Cell viability ([3]; 1 nM) of 99.88 ± 0.91. It also gave a Cell viability ([3]; 10 nM) of 98.25 ± 1.20, a Cell viability ([3]; 100 nM) of 97.69 ± 1.09 and a Cell viability ([3]; 1 μM) of 90.68 ± 2.05. For the same compound, the Cell viability ([3]; 10 μM) was 75.12 ± 2.85, the Cell viability ([3]; 100 μM) was 62.54 ± 4.20 and the “toxicity to the cell” value ([3]; 3T3-L1 cells, 1 μM) was “non-toxic”.
CN(C)C(=N)N=C(N)N [Metformin] showed a Triglycerides ([4]; 0 days) of 134.77 ± 14.06 mg/dL, a Triglycerides ([4]; 7th day) of 123.32 ± 9.51 mg/dL and a Triglycerides ([4]; 14th Day) of 102.50 ± 11.75 mg/dL. For the same compound, the Adiponectin ([5]; 7th day) was 6.90 ± 1.87 pg/mL, the Adiponectin ([5]; 14th Day) was 6.11 ± 1.39 pg/mL and the Adipocyte cell area [6] was 146.24 ± 10.85 μm. The Glyceuria [7] was “+”, the Urine volume [7] was 8.95 ± 1.70 mL and the Body weight ([8]; 0th Day) was 207.25 ± 6.44. The Plasma glucose ([9]; 0th Day, in mg/dL) was 169.83 ± 10.03, the Plasma glucose ([9]; 7th Day, in mg/dL) was 148.67 ± 8.85 and the Plasma glucose ([9]; 14th Day, in mg/dL) was 118.83 ± 8.75. For the same compound, the “Free Fatty Acid (FFA), Heart” value [10] was 446.83 ± 39.65 mg/100 g of tissue, the “Free Fatty Acid (FFA), Liver” value [10] was 777.83 ± 53.14 mg/100 g of tissue and the “Free Fatty Acid (FFA), Plasma” value [10] was 87.67 ± 7.68 mg/L. For the same compound, the HDL-c [11] was 27.68 ± 3.51, the LDL-c [11] was 41.38 ± 4.26 and the VLDL-c [11] was 22.10 ± 3.15.
With CCc1ccc(CCOc2ccc(CC3SC(=O)NC3=O)cc2)nc1 (stereo not shown) [Pioglitazone] the Triglycerides ([4]; 0 days) was 133.35 ± 09.77 mg/dL, the Triglycerides ([4]; 7th day) was 117.50 ± 9.02 mg/dL and the Triglycerides ([4]; 14th Day) was 71.30 ± 6.26 mg/dL. It also gave an Adiponectin ([5]; 7th day) of 7.13 ± 2.10 pg/mL, an Adiponectin ([5]; 14th Day) of 8.02 ± 2.01 pg/mL and an Adipocyte cell area [6] of 136.31 ± 13.53 μm. The Glyceuria [7] was “++”, the Urine volume [7] was 13.23 ± 1.18 mL and the Body weight ([8]; 0th Day) was 200.00 ± 4.65. For the same compound, the Body weight ([8]; 7th Day) was 178.80 ± 4.00, the Body weight ([8]; 14th Day) was 169.13 ± 2.84 and the Plasma glucose ([9]; 0th Day) was 170.17 ± 12.55. The Plasma glucose ([9]; 7th Day, in mg/dL) was 153.83 ± 15.68, the Plasma glucose ([9]; 14th Day, in mg/dL) was 140.17 ± 6.25 and the “Free Fatty Acid (FFA), Heart” value [10] was 379.17 ± 22.06 mg/100 g of tissue. The “Free Fatty Acid (FFA), Liver” value [10] was 522.67 ± 37.75 mg/100 g of tissue, the “Free Fatty Acid (FFA), Plasma” value [10] was 69.00 ± 5.60 mg/L and the Anti-atherogenic index [11] was 10.02 ± 5.23. For the same compound, the “Atherogenic Index” value [11] was 2.20 ± 0.35, the HDL-c [11] was 31.44 ± 2.85 and the LDL-c [11] was 35.11 ± 7.29. For the same compound, the VLDL-c [11] was 17.86 ± 2.05.
